According to PubChem BioAssay AID248 (DTP/NCI, 2004):
Several values for one entry are separate records, joined by “and”; a condition that tells them apart may be missing. Equal entries are not always repeated. Inconclusive results and toxic doses are left out.

Test system: L1210 leukemia ip in BDF1 mice, survival T/C
Experiment: NCI In Vivo Anticancer Drug Screen. Data for tumor model L1210 Leukemia (intraperitoneal) in B6D2F1 (BDF1) mice
Settings: endpoint: mean survival time, higher = longer survival
Summary of the method: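 Read-out is survival time, reported as the treated-group measurement over the vehicle-control measurement.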

[1] = dose: 50.0 mg/kg/injection, schedule: Q01DX001 (ip), vehicle: carboxymethylcellulose (CMC)
[2] = dose: 100.0 mg/kg/injection, schedule: Q01DX001 (ip), vehicle: carboxymethylcellulose (CMC)
[3] = dose: 200.0 mg/kg/injection, schedule: Q01DX001 (ip), vehicle: carboxymethylcellulose (CMC)
[4] = dose: 400.0 mg/kg/injection, schedule: Q01DX001 (ip), vehicle: carboxymethylcellulose (CMC)
[5] = dose: 100.0 mg/kg/injection, schedule: Q01DX001 (ip), vehicle: other
[6] = dose: 200.0 mg/kg/injection, schedule: Q01DX001 (ip), vehicle: other
[7] = dose: 400.0 mg/kg/injection, schedule: Q01DX001 (ip), vehicle: other
[8] = dose: 100.0 mg/kg/injection, schedule: Q01DX009 (ip), vehicle: Klucel (hydroxypropylcellulose) (HPC)
[9] = dose: 100.0 mg/kg/injection, schedule: Q04DX003 (ip), vehicle: Klucel (hydroxypropylcellulose) (HPC)
[10] = dose: 200.0 mg/kg/injection, schedule: Q01DX009 (ip), vehicle: Klucel (hydroxypropylcellulose) (HPC)
[11] = dose: 200.0 mg/kg/injection, schedule: Q04DX003 (ip), vehicle: Klucel (hydroxypropylcellulose) (HPC)
[12] = dose: 400.0 mg/kg/injection, schedule: Q04DX003 (ip), vehicle: Klucel (hydroxypropylcellulose) (HPC)

CN(C)N=Nc1ccccc1
T/C (dose: 4.0 mg/kg/injection, schedule: Q03HX008 (ip), vehicle: other): 102 % of control | T/C (dose: 4.0 mg/kg/injection, schedule: Q03HX016 (ip), vehicle: other): 101 % of control | T/C (dose: 4.0 mg/kg/injection, schedule: Q03HX024 (ip), vehicle: other): 105 % of control | T/C (dose: 8.0 mg/kg/injection, schedule: Q03HX008 (ip), vehicle: other): 103 % of control | T/C (dose: 8.0 mg/kg/injection, schedule: Q03HX016 (ip), vehicle: other): 103 % of control | T/C (dose: 8.0 mg/kg/injection, schedule: Q03HX024 (ip), vehicle: other): 108 % of control | T/C (dose: 12.5 mg/kg/injection, schedule: Q04DX003 (ip), vehicle: saline with Tween-80): 102 % of control | T/C (dose: 15.0 mg/kg/injection, schedule: Q01DX015 (ip), vehicle: carboxymethylcellulose (CMC)): 104 % of control and 106 % of control and 107 % of control | T/C (dose: 16.0 mg/kg/injection, schedule: Q01DX005 (iv), vehicle: other): 111 % of control | T/C (dose: 16.0 mg/kg/injection, schedule: Q01DX009 (ip), vehicle: other): 103 % of control | T/C (dose: 16.0 mg/kg/injection, schedule: Q01DX009 (sc), vehicle: other): 107 % of control | T/C (dose: 16.0 mg/kg/injection, schedule: Q03HX008 (ip), vehicle: other): 114 % of control | T/C (dose: 16.0 mg/kg/injection, schedule: Q03HX016 (ip), vehicle: other): 117 % of control | T/C (dose: 18.0 mg/kg/injection, schedule: Q01DX015 (ip), vehicle: carboxymethylcellulose (CMC)): 104 % of control | T/C (dose: 25.0 mg/kg/injection, schedule: Q04DX003 (ip), vehicle: saline with Tween-80): 123 % of control | T/C (dose: 26.0 mg/kg/injection, schedule: Q01DX015 (ip), vehicle: carboxymethylcellulose (CMC)): 108 % of control | T/C (dose: 30.0 mg/kg/injection, schedule: Q01DX015 (ip), vehicle: carboxymethylcellulose (CMC)): 110 % of control and 207 % of control | T/C (dose: 31.25 mg/kg/injection, schedule: Q01DX001 (ip), vehicle: saline with Tween-80): 108 % of control | T/C (dose: 32.0 mg/kg/injection, schedule: Q01DX001 (ip), vehicle: other): 109 % of control | T/C (dose: 32.0 mg/kg/injection, schedule: Q01DX001 (sc), vehicle: other): 102 % of control | T/C (dose: 32.0 mg/kg/injection, schedule: Q01DX005 (iv), vehicle: other): 109 % of control | T/C (dose: 32.0 mg/kg/injection, schedule: Q01DX009 (ip), vehicle: other): 122 % of control | T/C (dose: 32.0 mg/kg/injection, schedule: Q01DX009 (sc), vehicle: other): 114 % of control | T/C (dose: 32.0 mg/kg/injection, schedule: Q03HX024 (ip), vehicle: other): 120 % of control | T/C (dose: 32.0 mg/kg/injection, schedule: Q04DX003 (ip), vehicle: other): 102 % of control | T/C (dose: 32.0 mg/kg/injection, schedule: Q04DX003 (ip), vehicle: saline): 117 % of control | T/C (dose: 32.0 mg/kg/injection, schedule: Q08DX002 (ip), vehicle: other): 107 % of control | T/C [1]: 97 % of control | T/C (dose: 50.0 mg/kg/injection, schedule: Q04DX003 (ip), vehicle: saline with Tween-80): 115 % of control | T/C (dose: 60.0 mg/kg/injection, schedule: Q01DX015 (ip), vehicle: carboxymethylcellulose (CMC)): 119 % of control and 88 % of control | T/C (dose: 62.5 mg/kg/injection, schedule: Q01DX001 (ip), vehicle: saline with Tween-80): 111 % of control | T/C (dose: 64.0 mg/kg/injection, schedule: Q01DX001 (ip), vehicle: other): 112 % of control | T/C (dose: 64.0 mg/kg/injection, schedule: Q01DX001 (sc), vehicle: other): 102 % of control | T/C (dose: 64.0 mg/kg/injection, schedule: Q01DX009 (ip), vehicle: other): 120 % of control | T/C (dose: 64.0 mg/kg/injection, schedule: Q01DX009 (oral), vehicle: other): 122 % of control | T/C (dose: 64.0 mg/kg/injection, schedule: Q04DX003 (ip), vehicle: other): 114 % of control | T/C (dose: 64.0 mg/kg/injection, schedule: Q08DX002 (ip), vehicle: other): 101 % of control | T/C [2]: 93 % of control | T/C (dose: 100.0 mg/kg/injection, schedule: Q04DX003 (ip), vehicle: saline with Tween-80): 105 % of control and 117 % of control | T/C (dose: 128.0 mg/kg/injection, schedule: Q01DX001 (ip), vehicle: other): 123 % of control | T/C (dose: 128.0 mg/kg/injection, schedule: Q01DX001 (oral), vehicle: other): 109 % of control | T/C (dose: 128.0 mg/kg/injection, schedule: Q01DX001 (sc), vehicle: other): 112 % of control | T/C (dose: 128.0 mg/kg/injection, schedule: Q01DX009 (oral), vehicle: other): 122 % of control | T/C [3]: 123 % of control | T/C (dose: 256.0 mg/kg/injection, schedule: Q01DX001 (sc), vehicle: other): 121 % of control

CCCCCCCCCCCCCCSCCCCCCSCCCCCCCCCCCCCC
T/C (dose: 100.0 mg/kg/injection, schedule: Q01DX001 (ip), vehicle: Klucel (hydroxypropylcellulose) (HPC)): 98 % of control | T/C (dose: 200.0 mg/kg/injection, schedule: Q01DX001 (ip), vehicle: Klucel (hydroxypropylcellulose) (HPC)): 93 % of control | T/C (dose: 400.0 mg/kg/injection, schedule: Q01DX001 (ip), vehicle: Klucel (hydroxypropylcellulose) (HPC)): 94 % of control

Cc1ccc(S(=O)(=O)N(Cc2ccccc2[N+](=O)[O-])c2ccccc2)cc1
T/C [2]: 103 % of control | T/C [3]: 100 % of control | T/C [4]: 103 % of control

CCCCOCCOc1ccc(C(=O)O)cc1
T/C [5]: 106 % of control | T/C (dose: 100.0 mg/kg/injection, schedule: Q04DX003 (ip), vehicle: saline): 87 % of control | T/C [6]: 94 % of control | T/C (dose: 200.0 mg/kg/injection, schedule: Q04DX003 (ip), vehicle: saline): 94 % of control | T/C [7]: 103 % of control | T/C (dose: 400.0 mg/kg/injection, schedule: Q04DX003 (ip), vehicle: saline): 87 % of control

CC(C)(C)OC(=O)N/N=C1\CC2CCC1C2 (stereo not given)
T/C (dose: 100.0 mg/kg/injection, schedule: Q04DX003 (ip), vehicle: acetone): 95 % of control

Cc1ccc(C)c(NC(=O)Oc2ccc(C(=O)OCc3ccccc3)cc2)c1
T/C (dose: 25.0 mg/kg/injection, schedule: Q01DX009 (ip), vehicle: Klucel (hydroxypropylcellulose) (HPC)): 100 % of control | T/C (dose: 50.0 mg/kg/injection, schedule: Q01DX009 (ip), vehicle: Klucel (hydroxypropylcellulose) (HPC)): 88 % of control | T/C [8]: 93 % of control and 104 % of control | T/C [9]: 107 % of control | T/C [10]: 95 % of control | T/C [11]: 98 % of control | T/C [12]: 101 % of control

[N-]=[N+]=NCCC[CH2][Pb]([c]1ccccc1)([c]1ccccc1)[c]1ccccc1
T/C [1]: 96 % of control | T/C [2]: 102 % of control | T/C [3]: 100 % of control | T/C [4]: 96 % of control

CC(=O)N(C)C1=C(Sc2ccc([N+](=O)[O-])cc2)C(=O)c2ccccc2C1=O
T/C (dose: 50.0 mg/kg/injection, schedule: Q04DX003 (ip), vehicle: other): 92 % of control | T/C [5]: 97 % of control | T/C (dose: 100.0 mg/kg/injection, schedule: Q04DX003 (ip), vehicle: other): 97 % of control | T/C [6]: 96 % of control | T/C (dose: 200.0 mg/kg/injection, schedule: Q04DX003 (ip), vehicle: other): 86 % of control | T/C [7]: 92 % of control

CCOc1c(/C=N/NC(=O)c2ccccc2OC)cccc1OC
T/C [8]: 116 % of control | T/C [9]: 102 % of control | T/C [10]: 95 % of control | T/C [11]: 105 % of control | T/C [12]: 107 % of control
